Publication PMC12362796, “Bilirubin Targeting WNK1 to Alleviate NLRP3‐Mediated Neuroinflammation” (Advanced Science, 2025)

Experiments:
hWNK1 (181–507) = biological target: T1, hWNK1 (181–507) (Homo sapiens, UniProt Q9H4A3); assay: ADP-Glo kinase assay, purified hWNK1 kinase domain; type: biochemical; details: ADP production, luminescence normalized to reactions lacking bilirubin; 12 serial dilutions from 20 µM; read-out: EC50, activation of WNK1 kinase activity
T1 construct: the amino acid fragment 181–507 of human WNK1 (hWNK1)
T1 sequence (Q9H4A3 181-507): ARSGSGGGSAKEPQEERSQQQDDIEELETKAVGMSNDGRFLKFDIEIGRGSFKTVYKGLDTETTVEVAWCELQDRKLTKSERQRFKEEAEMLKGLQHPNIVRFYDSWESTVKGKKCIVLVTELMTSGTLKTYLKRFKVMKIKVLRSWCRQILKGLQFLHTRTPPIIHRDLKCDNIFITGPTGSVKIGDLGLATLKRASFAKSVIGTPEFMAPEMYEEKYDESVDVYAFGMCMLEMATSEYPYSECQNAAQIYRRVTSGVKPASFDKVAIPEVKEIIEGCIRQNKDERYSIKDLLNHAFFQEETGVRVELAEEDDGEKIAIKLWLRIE
Description: Given the binding of bilirubin to the kinase domain of WNK1, we aimed to explore its effect on WNK1 with a particular focus on its kinase activity. To evaluate WNK1 kinase activity, we utilized an in vitro kinase enzyme assay system to quantify ADP production by the amino acid fragment 181–507 of human WNK1 (hWNK1) over a range of bilirubin concentrations. The kinase‐dead WNK1 mutant hWNK1(181–507 S382A) served as a negative control (Figure S10, Supporting Information).^[ [30] ^]
WNK1 kinase activity was measured using the ADP‐Glo Kinase Assay (Promega, Cat. V9101) following the manufacturer's instructions. Purified protein was incubated with bilirubin across a range of 12 serially diluted concentrations, beginning at a maximum concentration of 20 µM. After the incubation period, luminescence was recorded using a microplate reader (Synergy H1M, BioTek)

[1] = biological target: T2, point mutations of WNK1 (1–491) (Homo sapiens, UniProt Q9H4A3, K351A); assay: MST, EGFP-tagged point mutations of WNK1 (1–491); type: binding; details: WNK1-N K351A
T2 construct: EGFP‐tagged point mutations of WNK1 (1–491) (15 min) in lysates; expressed in transfected cells; host or cells: HEK293T
T2 sequence (Q9H4A3 1-491 K351A): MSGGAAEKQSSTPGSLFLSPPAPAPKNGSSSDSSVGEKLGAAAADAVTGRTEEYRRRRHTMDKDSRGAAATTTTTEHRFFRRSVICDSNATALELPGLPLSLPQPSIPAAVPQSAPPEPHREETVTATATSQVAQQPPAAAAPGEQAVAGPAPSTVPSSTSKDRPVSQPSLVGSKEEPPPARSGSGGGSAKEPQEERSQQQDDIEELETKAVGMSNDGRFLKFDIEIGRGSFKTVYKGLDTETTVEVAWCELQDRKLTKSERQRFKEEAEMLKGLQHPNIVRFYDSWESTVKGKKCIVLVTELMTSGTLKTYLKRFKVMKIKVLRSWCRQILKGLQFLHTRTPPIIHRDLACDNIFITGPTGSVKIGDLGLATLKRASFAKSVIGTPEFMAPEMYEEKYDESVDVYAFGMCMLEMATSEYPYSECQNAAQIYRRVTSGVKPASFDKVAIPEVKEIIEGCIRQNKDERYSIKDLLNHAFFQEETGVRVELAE
Description: (§1) Molecular docking identified several crucial amino acid residues within binding site 1 of the kinase domain for the binding of WNK1 and bilirubin. These residues included Thr301 (T301), Met304 (M304), Lys351 (K351), and Phe356 (F356) (Figure 3C). To investigate this further, we constructed WNK1‐N mutants by replacing these residues with alanine (A). […] This finding highlights the critical role of these residues in bilirubin binding.
(§2) In HEK293T cells, proteins tagged with green fluorescent protein (GFP) were expressed. The cells were lysed using the M‐PER Mammalian Protein Extraction Reagent (cat. no. 78505, Thermo Scientific) supplemented with protease inhibitors. Lysates were centrifuged at 12000 × g for 15 min at 4 °C, and the supernatant containing proteins was diluted 10‐fold with 1x PBST. Protein fluorescence intensity and solubility were assessed using capillary scanning at 60% LED power.
(§3) For the binding assay, the proteins were mixed with ligands and incubated for 15 min at room temperature before being loaded into Monolith NT.115 Capillaries or NT.115 Premium Capillaries (NanoTemper Technologies, MO‐K022 and MO‐K025). MST measurements were performed on a Monolith NT.115 instrument (NanoTemper Technologies) at 25 °C. Instrument parameters included no more than 80% excitation power and a medium MST power. Data analysis was conducted using the MO. Affinity Analysis software (NanoTemper Technologies).

[2] = biological target: T3, point mutations of WNK1 (1–491) (Homo sapiens, UniProt Q9H4A3, T301A); assay: MST, EGFP-tagged point mutations of WNK1 (1–491); type: binding; details: WNK1-N T301A
T3 construct: EGFP‐tagged point mutations of WNK1 (1–491) (15 min) in lysates; expressed in transfected cells; host or cells: HEK293T
T3 sequence (Q9H4A3 1-491 T301A): as the sequence (Q9H4A3 1-491 K351A) above, with T301A, A351K counted along it
Description: as §1, §2, §3

[3] = biological target: T4, point mutations of WNK1 (1–491) (Homo sapiens, UniProt Q9H4A3, F356A); assay: MST, EGFP-tagged point mutations of WNK1 (1–491); type: binding; details: WNK1-N F356A
T4 construct: EGFP‐tagged point mutations of WNK1 (1–491) (15 min) in lysates; expressed in transfected cells; host or cells: HEK293T
T4 sequence (Q9H4A3 1-491 F356A): as the sequence (Q9H4A3 1-491 K351A) above, with A351K, F356A counted along it
Description: as §1, §2, §3

[4] = biological target: T5, point mutations of WNK1 (1–491) (Homo sapiens, UniProt Q9H4A3, M304A); assay: MST, EGFP-tagged point mutations of WNK1 (1–491); type: binding; details: WNK1-N M304A
T5 construct: EGFP‐tagged point mutations of WNK1 (1–491) (15 min) in lysates; expressed in transfected cells; host or cells: HEK293T
T5 sequence (Q9H4A3 1-491 M304A): as the sequence (Q9H4A3 1-491 K351A) above, with M304A, A351K counted along it
Description: as §1, §2, §3

hWNK2 = biological target: T6, hWNK2 (Homo sapiens, UniProt Q9Y3S1); assay: MST, WNK kinase family member WNK2; type: binding
T6 construct: host or cells: HEK293T
T6 sequence (Q9Y3S1 whole entry): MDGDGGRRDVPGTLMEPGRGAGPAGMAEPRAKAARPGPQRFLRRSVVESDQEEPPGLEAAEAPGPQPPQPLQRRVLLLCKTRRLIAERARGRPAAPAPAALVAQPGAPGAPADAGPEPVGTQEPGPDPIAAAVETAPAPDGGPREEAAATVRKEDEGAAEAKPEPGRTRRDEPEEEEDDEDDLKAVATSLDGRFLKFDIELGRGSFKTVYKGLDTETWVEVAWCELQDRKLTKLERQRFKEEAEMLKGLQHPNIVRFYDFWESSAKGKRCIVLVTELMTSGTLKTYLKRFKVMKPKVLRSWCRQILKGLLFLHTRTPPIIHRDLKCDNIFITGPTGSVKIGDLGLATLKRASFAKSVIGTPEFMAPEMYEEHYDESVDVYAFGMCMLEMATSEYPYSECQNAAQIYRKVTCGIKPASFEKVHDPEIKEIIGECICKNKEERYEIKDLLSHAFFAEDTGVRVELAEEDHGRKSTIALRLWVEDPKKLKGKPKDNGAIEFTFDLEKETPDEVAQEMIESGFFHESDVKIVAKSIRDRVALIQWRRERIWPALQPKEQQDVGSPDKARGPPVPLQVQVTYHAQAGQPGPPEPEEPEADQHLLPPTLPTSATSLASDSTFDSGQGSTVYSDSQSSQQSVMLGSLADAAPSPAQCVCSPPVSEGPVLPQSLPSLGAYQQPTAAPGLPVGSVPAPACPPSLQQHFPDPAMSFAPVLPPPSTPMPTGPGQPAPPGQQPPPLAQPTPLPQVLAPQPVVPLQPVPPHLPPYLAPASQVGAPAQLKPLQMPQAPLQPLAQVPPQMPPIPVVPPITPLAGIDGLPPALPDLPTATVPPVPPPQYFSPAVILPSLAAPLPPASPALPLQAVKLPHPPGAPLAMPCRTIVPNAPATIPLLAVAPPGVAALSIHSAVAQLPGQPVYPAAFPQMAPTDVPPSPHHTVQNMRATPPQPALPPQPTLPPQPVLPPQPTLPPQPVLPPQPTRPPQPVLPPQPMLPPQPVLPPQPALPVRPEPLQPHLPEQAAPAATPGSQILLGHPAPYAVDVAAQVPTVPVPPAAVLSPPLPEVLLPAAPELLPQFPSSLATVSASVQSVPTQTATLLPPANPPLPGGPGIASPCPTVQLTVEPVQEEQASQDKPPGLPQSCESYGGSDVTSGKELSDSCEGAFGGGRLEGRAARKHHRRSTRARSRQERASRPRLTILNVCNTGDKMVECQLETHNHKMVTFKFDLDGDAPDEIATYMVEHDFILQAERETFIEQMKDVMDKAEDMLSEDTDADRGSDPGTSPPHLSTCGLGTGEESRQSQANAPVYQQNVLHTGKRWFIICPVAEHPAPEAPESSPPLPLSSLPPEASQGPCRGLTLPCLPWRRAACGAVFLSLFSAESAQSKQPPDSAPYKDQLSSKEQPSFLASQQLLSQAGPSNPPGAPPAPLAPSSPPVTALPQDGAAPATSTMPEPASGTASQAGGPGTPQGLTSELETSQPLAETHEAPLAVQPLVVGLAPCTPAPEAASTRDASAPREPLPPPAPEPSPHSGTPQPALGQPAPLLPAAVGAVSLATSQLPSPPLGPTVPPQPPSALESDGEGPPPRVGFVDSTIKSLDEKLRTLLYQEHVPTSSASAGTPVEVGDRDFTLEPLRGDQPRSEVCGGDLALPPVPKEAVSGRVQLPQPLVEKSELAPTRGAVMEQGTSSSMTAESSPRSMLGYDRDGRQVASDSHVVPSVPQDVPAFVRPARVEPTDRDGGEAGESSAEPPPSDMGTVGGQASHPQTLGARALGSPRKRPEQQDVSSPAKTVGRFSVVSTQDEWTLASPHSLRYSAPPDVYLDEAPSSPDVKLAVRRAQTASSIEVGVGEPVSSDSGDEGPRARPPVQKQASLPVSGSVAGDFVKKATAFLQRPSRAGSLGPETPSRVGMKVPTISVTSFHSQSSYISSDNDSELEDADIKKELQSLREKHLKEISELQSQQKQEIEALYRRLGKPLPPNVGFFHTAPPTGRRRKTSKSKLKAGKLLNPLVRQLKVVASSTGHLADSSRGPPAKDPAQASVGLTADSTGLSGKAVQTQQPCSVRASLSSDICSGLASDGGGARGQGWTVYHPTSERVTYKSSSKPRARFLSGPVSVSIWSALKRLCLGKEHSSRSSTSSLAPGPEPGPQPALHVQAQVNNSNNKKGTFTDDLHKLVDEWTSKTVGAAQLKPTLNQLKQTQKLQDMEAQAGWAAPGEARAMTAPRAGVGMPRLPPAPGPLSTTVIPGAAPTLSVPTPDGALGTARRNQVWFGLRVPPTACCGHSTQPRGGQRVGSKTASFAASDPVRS
Protocol: To validate the direct binding of bilirubin to WNK1, we performed a Microscale Thermophoresis (MST) analysis, which assesses the binding capacity of a compound by measuring the movement of proteins over a microscopic temperature gradient.^[ [26], [27] ^] We overexpressed full‐length WNK1 fused with Green Fluorescent Protein (GFP) in HEK‐293 cells, incubated the lysates with bilirubin at varying dilutions, and subjected them to precise MST measurements in capillaries. […] Furthermore, biliverdin, a structurally similar intermediate product generated before bilirubin formation, was used as a control.
All WNK1 clones were derived from the original untagged hWNK1 cDNA (NM_018979), which was modified and subcloned into the pcDNA3.1, referred to as “full‐length WNK1” throughout this study. Truncated constructs, including 1–190aa, 191–491aa, 1–491aa, and 491–2382aa fragments, were generated by PCR using the full‐length template and subsequently ligated into linearized pcDNA3.1 vectors. WNK2 was obtained from Addgene Plasmid #24569, and WNK3 was obtained from Addgene Plasmid #81723. Both were subjected to base modifications and cloned into pcDNA3.1. The WNK4 clone was derived from hWNK4 cDNA (NM_032387.5), modified, and subcloned into the pCMV3‐C‐GFPSpark vector.
In HEK293T cells, proteins tagged with green fluorescent protein (GFP) were expressed. […]

[5] = test system: cochlear nuclei and hippocampus neurons; assay: Neuronal excitability in cochlear nuclei and hippocampus neurons; type: cell-based
Description: To ascertain whether bilirubin regulates chloride ions through WNK1, we generated Wnk1 gene knockout primary cultured neurons. We achieved neuron‐specific deletion of Wnk1 in hippocampal neurons by transducing primary neurons isolated from Wnk1^flox/flox embryonic mice with a lentivirus expressing hSyn‐Cre‐EGFP.^[ [33], [34] ^] […] Intracellular chloride concentration is crucial for modulating inhibitory synaptic transmission and, consequently, neuronal excitability.

FABP1 = test system: FABP1; set-up: method as in PMID 37390966, PMID 34067839; details: cited from earlier work
[6] = Osmolarity of different bilirubin concentrations; type: physicochemical; details: low concentrations of bilirubin
Description: To further investigate the impact of bilirubin on WNK1 kinase activity, we generated hippocampal neuron‐specific Wnk1 knockout mice. Given that conventional Wnk1 knockout mice are embryonically lethal, we employed the CRISPR/Cas9 method to create mice carrying the floxed Wnk1 gene. Then we crossed Thy1‐Cre mice with Wnk1^flox/flox mice to generate hippocampal neuron‐specific Wnk1 knockout mice. We examined the effects of bilirubin on the phosphorylation of WNK1 downstream targets, Ste20‐related proline alanine‐rich kinase (SPAK), and oxidative stress‐responsive kinase 1 (OSR1), in the hippocampus of Wnk1^flox/flox and Wnk1^flox/flox,Thy1‐Cre mice. Upon bilirubin treatment, phosphorylation of OSR1 and SPAK was elevated in the hippocampus of Wnk1^flox/flox mice. […] These findings indicate that the effect of bilirubin on OSR1 and SPAK phosphorylation is WNK1‐dependent (Figure 4B). To rule out the potential effects of osmolarity on the phosphorylation of WNK1, OSR1, and SPAK, we measured the osmolarity of different bilirubin concentrations.

EC50 (hWNK1 (181–507)): 896 nM | binding to K351A mutant [1]: reduced binding affinity | binding to T301A mutant [2]: unable to bind | binding to F356A mutant [3]: reduced binding affinity | binding to M304A mutant [4]: reduced binding affinity | Kd (hWNK2): 530 nM | osmolarity [6]: didn't change the osmolarity
SMILES: C=CC1=C(C)/C(=C/c2[nH]c(Cc3[nH]c(/C=C4\NC(=O)C(C)=C4C=C)c(C)c3CCC(=O)O)c(CCC(=O)O)c2C)NC1=O [bilirubin, Bilirubin]
neural excitability [5]: induces neural hyperexcitability | concentrations at which FABP1 binds bilirubin (FABP1): 1 to 4 µM
